Tests used:
[1] = target: Ribosomal protein S6 kinase alpha-5 (Homo sapiens) (UniProt O75582); conditions: Compound concentration 1000.0 nM
[2] = target: cAMP-dependent protein kinase catalytic subunit alpha (Homo sapiens) (UniProt P17612); conditions: Compound concentration 1000.0 nM
[3] = target: Serine/threonine-protein kinase MARK1 (Homo sapiens) (UniProt Q9P0L2); conditions: Compound concentration 1000.0 nM
[4] = target: Serine/threonine-protein kinase PAK 5 (Homo sapiens) (UniProt Q9P286); conditions: Compound concentration 1000.0 nM
[5] = target: Mitogen-activated protein kinase kinase kinase 5 (Homo sapiens) (UniProt Q99683); conditions: Compound concentration 1000.0 nM
[6] = target: Cyclin-dependent kinase 14 (Homo sapiens) (UniProt O94921); conditions: Compound concentration 1000.0 nM
[7] = target: Misshapen-like kinase 1 (Homo sapiens) (UniProt Q8N4C8); conditions: Compound concentration 1000.0 nM
[8] = target: Wee1-like protein kinase 2 (Homo sapiens) (UniProt P0C1S8); conditions: Compound concentration 1000.0 nM
Wee1-like protein kinase 2 (Homo sapiens), sequence (P0C1S8 whole entry, looked up): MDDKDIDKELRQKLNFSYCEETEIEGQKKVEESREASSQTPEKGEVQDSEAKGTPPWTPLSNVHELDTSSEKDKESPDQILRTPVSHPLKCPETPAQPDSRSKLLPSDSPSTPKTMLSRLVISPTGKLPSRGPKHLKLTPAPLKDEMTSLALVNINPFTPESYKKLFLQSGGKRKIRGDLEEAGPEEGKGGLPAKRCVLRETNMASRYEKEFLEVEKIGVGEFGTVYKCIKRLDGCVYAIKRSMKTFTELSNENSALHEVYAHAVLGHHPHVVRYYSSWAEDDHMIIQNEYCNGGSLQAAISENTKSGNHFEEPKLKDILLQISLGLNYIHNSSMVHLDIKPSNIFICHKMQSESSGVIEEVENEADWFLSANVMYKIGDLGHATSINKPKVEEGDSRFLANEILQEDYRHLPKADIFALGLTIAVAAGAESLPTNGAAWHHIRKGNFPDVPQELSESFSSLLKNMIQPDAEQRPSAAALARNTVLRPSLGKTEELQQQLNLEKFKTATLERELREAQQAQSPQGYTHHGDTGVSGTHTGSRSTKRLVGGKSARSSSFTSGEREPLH

[9] = target: Death-associated protein kinase 2 (Homo sapiens) (UniProt Q9UIK4); conditions: Compound concentration 1000.0 nM
Death-associated protein kinase 2 (Homo sapiens), sequence (Q9UIK4 whole entry, looked up): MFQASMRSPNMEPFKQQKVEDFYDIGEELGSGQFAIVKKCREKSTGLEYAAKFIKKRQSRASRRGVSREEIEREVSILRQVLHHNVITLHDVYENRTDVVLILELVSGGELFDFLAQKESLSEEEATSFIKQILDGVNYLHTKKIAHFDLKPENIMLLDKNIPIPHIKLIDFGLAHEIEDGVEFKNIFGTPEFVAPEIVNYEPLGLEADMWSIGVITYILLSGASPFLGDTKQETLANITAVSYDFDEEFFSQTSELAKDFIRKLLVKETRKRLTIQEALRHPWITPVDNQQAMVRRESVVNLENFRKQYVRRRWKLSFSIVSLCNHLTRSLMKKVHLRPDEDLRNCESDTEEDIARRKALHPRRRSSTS

[10] = system: Tyrosine-protein kinase ABL1 (Homo sapiens), P00519 [F317I]; conditions: Compound concentration 1000.0 nM
[11] = target: Phosphatidylinositol 4-phosphate 3-kinase C2 domain-containing subunit beta (Homo sapiens) (UniProt O00750); conditions: Compound concentration 1000.0 nM
[12] = target: MAP kinase-activated protein kinase 2 (Homo sapiens) (UniProt P49137); conditions: Compound concentration 1000.0 nM
MAP kinase-activated protein kinase 2 (Homo sapiens), sequence (P49137 whole entry, looked up): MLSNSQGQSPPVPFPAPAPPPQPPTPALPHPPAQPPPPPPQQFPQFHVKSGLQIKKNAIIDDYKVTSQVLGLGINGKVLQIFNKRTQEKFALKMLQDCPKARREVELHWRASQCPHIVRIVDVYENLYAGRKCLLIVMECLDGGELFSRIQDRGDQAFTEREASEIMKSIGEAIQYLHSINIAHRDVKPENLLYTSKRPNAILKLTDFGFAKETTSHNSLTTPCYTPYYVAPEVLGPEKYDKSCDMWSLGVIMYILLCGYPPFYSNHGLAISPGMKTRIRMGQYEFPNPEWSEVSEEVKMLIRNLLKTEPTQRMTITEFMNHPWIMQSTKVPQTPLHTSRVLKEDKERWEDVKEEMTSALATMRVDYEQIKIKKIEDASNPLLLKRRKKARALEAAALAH

[13] = target: 1-phosphatidylinositol 3-phosphate 5-kinase (Homo sapiens) (UniProt Q9Y2I7); conditions: Compound concentration 1000.0 nM
[14] = target: Macrophage colony-stimulating factor 1 receptor (Homo sapiens) (UniProt P07333); conditions: Compound concentration 1000.0 nM
[15] = system: Tyrosine-protein kinase ABL1 (Homo sapiens), P00519 [Q252H]; conditions: Compound concentration 1000.0 nM
[16] = target: Fibroblast growth factor receptor 1 (Homo sapiens) (UniProt P11362); conditions: Compound concentration 1000.0 nM
Fibroblast growth factor receptor 1 (Homo sapiens), sequence (P11362 22-822 limits assumed): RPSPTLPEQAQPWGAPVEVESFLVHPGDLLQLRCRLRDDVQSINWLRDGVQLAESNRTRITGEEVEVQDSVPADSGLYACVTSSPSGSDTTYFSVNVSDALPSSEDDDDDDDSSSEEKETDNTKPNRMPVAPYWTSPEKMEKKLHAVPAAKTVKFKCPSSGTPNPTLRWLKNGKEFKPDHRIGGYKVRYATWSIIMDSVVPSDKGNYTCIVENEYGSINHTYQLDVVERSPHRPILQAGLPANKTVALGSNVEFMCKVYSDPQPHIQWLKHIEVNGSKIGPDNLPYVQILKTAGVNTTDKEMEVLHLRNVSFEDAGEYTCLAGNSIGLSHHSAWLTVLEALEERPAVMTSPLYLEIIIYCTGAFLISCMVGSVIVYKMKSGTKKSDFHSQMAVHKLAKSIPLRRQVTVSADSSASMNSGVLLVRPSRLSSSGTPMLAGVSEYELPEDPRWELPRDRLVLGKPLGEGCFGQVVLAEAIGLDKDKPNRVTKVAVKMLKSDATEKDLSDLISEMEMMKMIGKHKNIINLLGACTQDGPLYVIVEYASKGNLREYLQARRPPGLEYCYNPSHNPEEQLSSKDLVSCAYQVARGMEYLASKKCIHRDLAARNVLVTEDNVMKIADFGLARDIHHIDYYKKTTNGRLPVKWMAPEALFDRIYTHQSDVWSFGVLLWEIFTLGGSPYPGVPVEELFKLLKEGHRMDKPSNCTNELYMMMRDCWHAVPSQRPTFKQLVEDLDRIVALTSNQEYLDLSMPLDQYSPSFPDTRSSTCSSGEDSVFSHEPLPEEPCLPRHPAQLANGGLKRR

[17] = target: Cyclin-dependent kinase 3 (Homo sapiens) (UniProt Q00526); conditions: Compound concentration 1000.0 nM
[18] = target: Ribosomal protein S6 kinase alpha-4 (Homo sapiens) (UniProt O75676); conditions: Compound concentration 1000.0 nM
[19] = target: T1, Muscarinic acetylcholine receptor M1 (Homo sapiens) (UniProt P11229); conditions: Compound concentration 10.0 uM
T1 sequence (whole entry): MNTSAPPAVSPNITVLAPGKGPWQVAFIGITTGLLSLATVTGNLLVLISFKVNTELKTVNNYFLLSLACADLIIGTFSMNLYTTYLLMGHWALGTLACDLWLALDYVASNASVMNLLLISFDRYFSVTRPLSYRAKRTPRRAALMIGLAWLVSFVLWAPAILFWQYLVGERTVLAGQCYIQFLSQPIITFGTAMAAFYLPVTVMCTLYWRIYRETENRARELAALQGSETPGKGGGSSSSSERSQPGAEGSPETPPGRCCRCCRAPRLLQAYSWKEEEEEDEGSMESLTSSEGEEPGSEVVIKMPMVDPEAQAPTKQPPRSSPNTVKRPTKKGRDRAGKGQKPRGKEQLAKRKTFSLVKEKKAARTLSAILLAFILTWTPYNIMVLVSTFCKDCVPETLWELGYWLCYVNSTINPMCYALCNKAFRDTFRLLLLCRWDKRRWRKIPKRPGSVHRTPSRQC

[20] = target: Serine/threonine-protein kinase pim-2 (Homo sapiens) (UniProt Q9P1W9); conditions: Compound concentration 1000.0 nM
Serine/threonine-protein kinase pim-2 (Homo sapiens), sequence (Q9P1W9 whole entry, looked up): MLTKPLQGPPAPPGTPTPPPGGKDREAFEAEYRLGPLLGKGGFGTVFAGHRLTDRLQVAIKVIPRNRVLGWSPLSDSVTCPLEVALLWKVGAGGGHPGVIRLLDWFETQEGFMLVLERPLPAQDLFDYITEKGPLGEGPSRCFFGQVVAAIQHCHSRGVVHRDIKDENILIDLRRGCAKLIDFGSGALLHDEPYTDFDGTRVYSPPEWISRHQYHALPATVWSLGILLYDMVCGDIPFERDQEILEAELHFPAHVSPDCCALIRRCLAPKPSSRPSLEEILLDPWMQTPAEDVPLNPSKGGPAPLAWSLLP

[21] = target: T2, 5-hydroxytryptamine receptor 2C (Homo sapiens) (UniProt P28335); conditions: Compound concentration 10.0 uM
T2 sequence (whole entry): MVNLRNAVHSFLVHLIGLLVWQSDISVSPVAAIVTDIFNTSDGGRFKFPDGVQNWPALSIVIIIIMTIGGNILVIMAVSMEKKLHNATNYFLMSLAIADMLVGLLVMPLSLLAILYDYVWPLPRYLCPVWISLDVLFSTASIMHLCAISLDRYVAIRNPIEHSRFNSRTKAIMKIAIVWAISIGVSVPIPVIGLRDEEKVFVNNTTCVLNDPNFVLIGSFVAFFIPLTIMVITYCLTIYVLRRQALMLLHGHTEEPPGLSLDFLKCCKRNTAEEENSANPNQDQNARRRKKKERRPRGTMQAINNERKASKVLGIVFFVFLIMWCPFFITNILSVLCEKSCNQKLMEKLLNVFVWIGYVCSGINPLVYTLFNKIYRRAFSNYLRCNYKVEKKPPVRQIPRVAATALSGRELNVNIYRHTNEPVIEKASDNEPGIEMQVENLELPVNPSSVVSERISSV

[22] = target: Focal adhesion kinase 1 (Homo sapiens) (UniProt Q05397); conditions: Compound concentration 1000.0 nM
[23] = target: Serine/threonine-protein kinase SIK1 (Homo sapiens) (UniProt P57059); conditions: Compound concentration 1000.0 nM
[24] = target: ALK tyrosine kinase receptor (Homo sapiens) (UniProt Q9UM73); conditions: Compound concentration 1000.0 nM
ALK tyrosine kinase receptor (Homo sapiens), sequence (Q9UM73 19-1620 limits assumed): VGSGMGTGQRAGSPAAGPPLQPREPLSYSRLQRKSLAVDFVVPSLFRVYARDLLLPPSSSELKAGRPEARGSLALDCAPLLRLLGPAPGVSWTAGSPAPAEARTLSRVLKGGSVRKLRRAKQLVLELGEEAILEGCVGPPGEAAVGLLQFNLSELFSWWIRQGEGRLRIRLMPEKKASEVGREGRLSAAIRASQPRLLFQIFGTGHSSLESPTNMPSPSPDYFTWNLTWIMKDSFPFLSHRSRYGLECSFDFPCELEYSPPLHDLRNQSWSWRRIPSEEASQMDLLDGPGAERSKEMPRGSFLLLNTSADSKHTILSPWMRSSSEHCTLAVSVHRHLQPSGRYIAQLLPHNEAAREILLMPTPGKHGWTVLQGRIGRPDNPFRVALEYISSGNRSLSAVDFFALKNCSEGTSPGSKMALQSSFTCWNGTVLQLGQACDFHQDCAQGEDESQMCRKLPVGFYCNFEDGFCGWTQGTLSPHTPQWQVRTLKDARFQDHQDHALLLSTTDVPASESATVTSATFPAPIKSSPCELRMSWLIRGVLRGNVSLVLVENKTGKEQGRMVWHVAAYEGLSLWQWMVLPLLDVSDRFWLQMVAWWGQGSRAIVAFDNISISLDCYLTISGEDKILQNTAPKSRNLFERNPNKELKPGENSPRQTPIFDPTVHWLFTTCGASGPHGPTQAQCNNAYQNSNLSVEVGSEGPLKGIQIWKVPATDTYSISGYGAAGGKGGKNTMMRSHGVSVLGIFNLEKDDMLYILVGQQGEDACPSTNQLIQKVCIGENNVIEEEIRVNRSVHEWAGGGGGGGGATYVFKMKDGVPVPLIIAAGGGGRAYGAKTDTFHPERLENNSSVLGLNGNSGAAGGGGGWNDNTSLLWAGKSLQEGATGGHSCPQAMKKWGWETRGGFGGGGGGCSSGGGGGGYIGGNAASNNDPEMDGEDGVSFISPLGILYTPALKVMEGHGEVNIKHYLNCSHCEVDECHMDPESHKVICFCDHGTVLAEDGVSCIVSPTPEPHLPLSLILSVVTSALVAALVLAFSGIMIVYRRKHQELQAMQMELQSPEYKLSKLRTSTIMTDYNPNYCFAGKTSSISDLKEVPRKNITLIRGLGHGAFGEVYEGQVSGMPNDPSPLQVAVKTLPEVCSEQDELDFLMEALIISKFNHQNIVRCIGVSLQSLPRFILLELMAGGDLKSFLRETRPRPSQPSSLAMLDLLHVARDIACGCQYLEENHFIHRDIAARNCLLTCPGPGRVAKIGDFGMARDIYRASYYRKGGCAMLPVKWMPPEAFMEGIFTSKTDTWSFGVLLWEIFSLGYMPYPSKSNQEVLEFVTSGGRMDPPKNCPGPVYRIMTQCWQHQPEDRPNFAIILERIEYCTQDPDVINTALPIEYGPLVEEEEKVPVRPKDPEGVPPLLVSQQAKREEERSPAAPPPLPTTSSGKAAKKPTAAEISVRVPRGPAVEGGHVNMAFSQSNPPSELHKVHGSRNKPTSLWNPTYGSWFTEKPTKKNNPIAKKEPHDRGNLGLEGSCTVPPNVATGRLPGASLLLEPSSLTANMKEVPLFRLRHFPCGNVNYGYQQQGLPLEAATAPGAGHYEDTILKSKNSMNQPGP

[25] = system: Epidermal growth factor receptor (Homo sapiens), P00533 [T790M]; conditions: Compound concentration 1000.0 nM
[26] = target: Homeodomain-interacting protein kinase 4 (Homo sapiens) (UniProt Q8NE63); conditions: Compound concentration 1000.0 nM
[27] = system: Receptor-type tyrosine-protein kinase FLT3 (Homo sapiens), P36888 [R834Q]; conditions: Compound concentration 1000.0 nM
[28] = target: Ephrin type-A receptor 4 (Homo sapiens) (UniProt P54764); conditions: Compound concentration 1000.0 nM
[29] = target: High affinity nerve growth factor receptor (Homo sapiens) (UniProt P04629); conditions: Compound concentration 1000.0 nM
High affinity nerve growth factor receptor (Homo sapiens), sequence (P04629 33-796 limits assumed): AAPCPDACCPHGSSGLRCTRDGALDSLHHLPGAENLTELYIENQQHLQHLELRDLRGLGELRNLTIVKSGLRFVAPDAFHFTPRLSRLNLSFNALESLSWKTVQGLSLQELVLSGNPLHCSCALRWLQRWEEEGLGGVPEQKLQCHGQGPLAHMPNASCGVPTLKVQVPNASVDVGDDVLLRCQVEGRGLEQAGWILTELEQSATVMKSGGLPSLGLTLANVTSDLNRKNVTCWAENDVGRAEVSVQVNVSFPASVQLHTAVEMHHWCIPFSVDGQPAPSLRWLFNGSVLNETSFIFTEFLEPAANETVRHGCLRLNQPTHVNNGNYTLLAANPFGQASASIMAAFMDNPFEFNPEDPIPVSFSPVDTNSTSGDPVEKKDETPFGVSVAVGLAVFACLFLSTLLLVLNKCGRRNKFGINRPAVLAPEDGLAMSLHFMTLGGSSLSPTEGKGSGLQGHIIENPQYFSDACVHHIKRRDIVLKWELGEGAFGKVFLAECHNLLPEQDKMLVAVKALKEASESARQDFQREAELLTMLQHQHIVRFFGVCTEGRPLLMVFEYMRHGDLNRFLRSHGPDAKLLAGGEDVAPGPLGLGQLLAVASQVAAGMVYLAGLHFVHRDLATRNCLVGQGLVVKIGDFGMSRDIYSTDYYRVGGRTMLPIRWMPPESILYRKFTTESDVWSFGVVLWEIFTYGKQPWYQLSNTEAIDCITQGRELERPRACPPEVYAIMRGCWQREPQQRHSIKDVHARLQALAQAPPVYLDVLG

[30] = system: Tyrosine-protein kinase ABL1 (Homo sapiens), P00519 [F317L]; conditions: Compound concentration 1000.0 nM
[31] = target: 5-hydroxytryptamine receptor 1D (Homo sapiens) (UniProt P28221); conditions: Compound concentration 10.0 uM
[32] = target: Serine/threonine-protein kinase 32B (Homo sapiens) (UniProt Q9NY57); conditions: Compound concentration 1000.0 nM
[33] = target: Calcium-dependent protein kinase 1 (Plasmodium falciparum) (UniProt P62344); conditions: Compound concentration 1000.0 nM

Structure (SMILES)	residual activity [1]	residual activity [2]	residual activity [3]	residual activity [4]	residual activity [5]	residual activity [6]	residual activity [7]	residual activity [8]	residual activity [9]	residual activity [10]	residual activity [11]	residual activity [12]	residual activity [13]	residual activity [14]	residual activity [15]	residual activity [16]	residual activity [17]	residual activity [18]	inhibition [19]	residual activity [20]	other results
Cn1cncc1[C@](O)(COc1ccc(C#N)cc1-c1ccc(OC(F)(F)F)cc1)c1ccc(C#N)cc1 [ABT-100]	94%	81%	57%	94%	77%	86%	94%	84%	82%	98%	89%	63%	100%	93%	96%	62%	71%	76%	-4.07%	84%	inhibition [21]: 0.26%; residual activity [22]: 77%; residual activity [23]: 95%; residual activity [24]: 100%; residual activity [25]: 100%; residual activity [26]: 86%; residual activity [27]: 98%; residual activity [28]: 100%; residual activity [29]: 91%; residual activity [30]: 100%; inhibition [31]: -0.932%; residual activity [32]: 100%; residual activity [33]: 88%
Cn1cncc1[C@@](O)(COc1ccc(C#N)cc1-c1ccc(OC(F)(F)F)cc1)c1ccc(C#N)cc1 [A-108]	88%	94%	100%	100%	91%	100%	100%	100%	97%	100%	95%	61%	100%	100%	76%	100%	100%	93%	25.8%	100%	inhibition [21]: 17.1%; residual activity [22]: 97%; residual activity [23]: 100%; residual activity [24]: 70%; residual activity [25]: 68%; residual activity [26]: 100%; residual activity [27]: 100%; residual activity [28]: 12%; residual activity [29]: 91%; residual activity [30]: 100%; inhibition [31]: 6.65%; residual activity [32]: 97%; residual activity [33]: 75%

From ChEMBL document CHEMBL4507257, “Data for DCP probe ABT-100” (2021)
